Measured values as given in ChEMBL document CHEMBL2434896, “Carbonic anhydrase inhibitors. Synthesis of heterocyclic 4-substituted pyridine-3-sulfonamide derivatives and their inhibition of the human cytosolic isozymes I and II and transmembrane tumor-associated isozymes IX and XII” (Eur J Med Chem, 2013).
The source made the active and inactive calls. No cut-off for these calls is given here.

Tests used:
OVCAR-4 = test: Growth inhibition of human OVCAR4 cells at 10 uM after 48 hrs by sulforhodamine B assay; type: functional
MOLT-4 = test: Growth inhibition of human MOLT4 cells at 10 uM after 48 hrs by sulforhodamine B assay; type: functional; details: MOLT-4, 48 h, read-out: GI
NCI/ADR-RES = test: Growth inhibition of human NCI-ADR-RES cells at 10 uM after 48 hrs by sulforhodamine B assay; type: functional
RPMI-8226 = test: Growth inhibition of human RPMI8226 cells at 10 uM after 48 hrs by sulforhodamine B assay; type: functional; details: RPMI-8226, 48 h, read-out: GI
HCT-116 = test: Growth inhibition of human HCT116 cells at 10 uM after 48 hrs by sulforhodamine B assay; type: functional; details: HCT-116, 48 h, read-out: GI
OVCAR-3 = test: Growth inhibition of human OVCAR3 cells at 10 uM after 48 hrs by sulforhodamine B assay; type: functional
KM12 = test: Growth inhibition of human KM12 cells at 10 uM after 48 hrs by sulforhodamine B assay; type: functional
SW-620 = test: Growth inhibition of human SW620 cells at 10 uM after 48 hrs by sulforhodamine B assay; type: functional
A498 = test: Growth inhibition of human A498 cells at 10 uM after 48 hrs by sulforhodamine B assay; type: functional
UO-31 = test: Growth inhibition of human UO31 cells at 10 uM after 48 hrs by sulforhodamine B assay; type: functional; details: UO-31, 48 h, read-out: GI
ACHN = test: Growth inhibition of human ACHN cells at 10 uM after 48 hrs by sulforhodamine B assay; type: functional; details: read-out: GI
SF-539 = test: Growth inhibition of human SF539 cells at 10 uM after 48 hrs by sulforhodamine B assay; type: functional; details: SF-539, 48 h, read-out: GI
NCI-H226 = test: Growth inhibition of human NCI-H226 cells at 10 uM after 48 hrs by sulforhodamine B assay; type: functional; details: NCI-H226, 48 h, read-out: GI
NCI-H322M = test: Growth inhibition of human NCI-H322M cells at 10 uM after 48 hrs by sulforhodamine B assay; type: functional; details: read-out: GI
HL-60(TB) = test: Growth inhibition of human HL-60(TB) cells at 10 uM after 48 hrs by sulforhodamine B assay; type: functional; details: HL-60, 48 h, read-out: GI
786-0 = test: Growth inhibition of human 786-0 cells at 10 uM after 48 hrs by sulforhodamine B assay; type: functional
HOP-62 = test: Growth inhibition of human HOP62 cells at 10 uM after 48 hrs by sulforhodamine B assay; type: functional
SR = test: Growth inhibition of human SR cells at 10 uM after 48 hrs by sulforhodamine B assay; type: functional; details: read-out: GI
NCI-H460 = test: Growth inhibition of human NCI-H460 cells at 10 uM after 48 hrs by sulforhodamine B assay; type: functional
MDA-MB-435 = test: Growth inhibition of human MDA-MB-435 cells at 10 uM after 48 hrs by sulforhodamine B assay; type: functional
SK-MEL-28 = test: Growth inhibition of human SK-MEL-28 cells at 10 uM after 48 hrs by sulforhodamine B assay; type: functional, cell-based
IGROV-1 = test: Growth inhibition of human IGROV1 cells at 10 uM after 48 hrs by sulforhodamine B assay; type: functional; details: IGROV-1, 48 h, read-out: GI
CCRF-CEM = test: Growth inhibition of human CCRF-CEM cells at 10 uM after 48 hrs by sulforhodamine B assay; type: functional
DU-145 = test: Growth inhibition of human DU145 cells at 10 uM after 48 hrs by sulforhodamine B assay; type: functional
MDA-MB-231 = test: Growth inhibition of human MDA-MB-231 cells at 10 uM after 48 hrs by sulforhodamine B assay; type: functional
Carbonic anhydrase 9 = Carbonic anhydrase 9 (Homo sapiens, UniProt Q16790); test: Inhibition of human carbonic anhydrase 9 after 15 mins by stopped flow CO2 hydration assay
NCI-H522 = test: Growth inhibition of human NCI-H522 cells at 10 uM after 48 hrs by sulforhodamine B assay; type: functional; details: NCI-H522, 48 h, read-out: GI
SK-OV-3 = test: Growth inhibition of human SKOV3 cells at 10 uM after 48 hrs by sulforhodamine B assay; type: functional
SNB-19 = test: Growth inhibition of human SNB19 cells at 10 uM after 48 hrs by sulforhodamine B assay; type: functional
PC-3 = test: Growth inhibition of human PC3 cells at 10 uM after 48 hrs by sulforhodamine B assay; type: functional; details: PC-3, 48 h, read-out: GI
SK-MEL-5 = test: Growth inhibition of human SK-MEL-5 cells at 10 uM after 48 hrs by sulforhodamine B assay; type: functional; details: SK-MEL-5, 48 h, read-out: GI
TK-10 = test: Growth inhibition of human TK10 cells at 10 uM after 48 hrs by sulforhodamine B assay; type: functional
HCT-15 = test: Growth inhibition of human HCT15 cells at 10 uM after 48 hrs by sulforhodamine B assay; type: functional; details: HCT-15, 48 h, read-out: GI
SNB-75 = test: Growth inhibition of human SNB75 cells at 10 uM after 48 hrs by sulforhodamine B assay; type: functional
K562 = test: Growth inhibition of human K562 cells at 10 uM after 48 hrs by sulforhodamine B assay; type: functional; details: K562, 48 h, read-out: GI
SF-295 = test: Growth inhibition of human SF295 cells at 10 uM after 48 hrs by sulforhodamine B assay; type: functional; details: SF-295, 48 h, read-out: GI
Malme-3M = test: Growth inhibition of human MALME-3M cells at 10 uM after 48 hrs by sulforhodamine B assay; type: functional
HT-29 = test: Growth inhibition of human HT-29 cells at 10 uM after 48 hrs by sulforhodamine B assay; type: functional; details: HT-29, 48 h, read-out: GI
MDA-MB-468 = test: Growth inhibition of human MDA-MB-468 cells at 10 uM after 48 hrs by sulforhodamine B assay; type: functional; details: MDA-MB-468, 48 h, read-out: GI
T47D = test: Growth inhibition of human T47D cells at 10 uM after 48 hrs by sulforhodamine B assay; type: functional; details: read-out: GI
M14 = test: Growth inhibition of human M14 cells at 10 uM after 48 hrs by sulforhodamine B assay; type: functional; details: M14, 48 h, read-out: GI
SN12C = test: Growth inhibition of human SN12C cells at 10 uM after 48 hrs by sulforhodamine B assay; type: functional
UACC-257 = test: Growth inhibition of human UACC257 cells at 10 uM after 48 hrs by sulforhodamine B assay; type: functional
A549 = test: Growth inhibition of human A549/ATCC cells at 10 uM after 48 hrs by sulforhodamine B assay; type: functional; details: A549, 48 h, read-out: GI
U-251 = test: Growth inhibition of human U251 cells at 10 uM after 48 hrs by sulforhodamine B assay; type: functional; details: U-251, 48 h, read-out: GI

For `NS(=O)(=O)c1cnccc1N1CCN(c2ccc(Cl)cc2)CC1`, the inhibition of growth at 10 µM (OVCAR-4; OVCAR-4, 48 h, read-out: GI) was 28%, the inhibition of growth at 10 µM (MOLT-4) was 25% and the “growth inhibition (GI)” value (NCI/ADR-RES) was “inactive”. The inhibition of growth at 10 µM (RPMI-8226) was 25%, the inhibition of growth at 10 µM (HCT-116) was 5% and the “growth inhibition (GI)” value (OVCAR-3) was “inactive”. The “growth inhibition (GI)” value (KM12) was “inactive”, the “growth inhibition (GI)” value (SW-620) was “inactive” and the “growth inhibition (GI)” value (A498) was “inactive”. For the same molecule, the inhibition of growth at 10 µM (UO-31) was 20%, the inhibition of growth at 10 µM (ACHN) was 6% and the inhibition of growth at 10 µM (SF-539) was 8%. The inhibition of growth at 10 µM (NCI-H226) was 13%, the inhibition of growth at 10 µM (NCI-H322M) was 11% and the inhibition of growth at 10 µM (HL-60(TB)) was 1%. For the same molecule, the “growth inhibition (GI)” value (786-0) was “inactive”, the “growth inhibition (GI)” value (HOP-62) was “inactive” and the inhibition of growth at 10 µM (SR) was 11%. The “growth inhibition (GI)” value (NCI-H460) was “inactive”, the inhibition of growth at 10 µM (MDA-MB-435; MDA-MB-435, 48 h, read-out: GI) was 1% and the “growth inhibition (GI)” value (SK-MEL-28) was “inactive”. For the same molecule, the inhibition of growth at 10 µM (IGROV-1) was 10%, the inhibition of growth at 10 µM (CCRF-CEM; read-out: GI) was 17% and the “growth inhibition (GI)” value (DU-145) was “inactive”. The inhibition of growth at 10 µM (MDA-MB-231; MDA-MB-231, 48 h, read-out: GI) was 7%, the Ki (Carbonic anhydrase 9) was 135 nM and the inhibition of growth at 10 µM (NCI-H522) was 8%. For the same molecule, the “growth inhibition (GI)” value (SK-OV-3) was “inactive”, the “growth inhibition (GI)” value (SNB-19) was “inactive” and the inhibition of growth at 10 µM (PC-3) was 8%. For the same molecule, the inhibition of growth at 10 µM (SK-MEL-5) was 28%, the “growth inhibition (GI)” value (TK-10) was “inactive” and the inhibition of growth at 10 µM (HCT-15) was 5%. The “growth inhibition (GI)” value (SNB-75) was “inactive”, the inhibition of growth at 10 µM (K562) was 28% and the inhibition of growth at 10 µM (SF-295) was 14%. For the same molecule, the “growth inhibition (GI)” value (Malme-3M) was “inactive”, the inhibition of growth at 10 µM (HT-29) was 7% and the inhibition of growth at 10 µM (MDA-MB-468) was 31%. It also gave an inhibition of growth at 10 µM (T47D) of 32%, an inhibition of growth at 10 µM (M14) of 1% and an inhibition of growth at 10 µM (SN12C; read-out: GI) of 5%.

`Cc1ccc(C)c(N2CCN(c3ccncc3S(N)(=O)=O)CC2)c1` was tested, and the “growth inhibition (GI)” value (OVCAR-4) was “inactive”, the inhibition of growth at 10 µM (MOLT-4) was 11% and the “growth inhibition (GI)” value (NCI/ADR-RES) was “inactive”. For the same molecule, the inhibition of growth at 10 µM (RPMI-8226) was 8%, the inhibition of growth at 10 µM (HCT-116) was 9% and the “growth inhibition (GI)” value (OVCAR-3) was “inactive”. The “growth inhibition (GI)” value (KM12) was “inactive”, the inhibition of growth at 10 µM (SW-620; SW-620, 48 h, read-out: GI) was 3% and the inhibition of growth at 10 µM (A498; A498, 48 h, read-out: GI) was 16%. It also gave an inhibition of growth at 10 µM (UO-31) of 15%, an inhibition of growth at 10 µM (ACHN) of 6% and an inhibition of growth at 10 µM (SF-539) of 1%. It also gave an inhibition of growth at 10 µM (NCI-H226) of 3%, an inhibition of growth at 10 µM (NCI-H322M) of 7% and an inhibition of growth at 10 µM (HL-60(TB)) of 6%. For the same molecule, the “growth inhibition (GI)” value (786-0) was “inactive”, the “growth inhibition (GI)” value (HOP-62) was “inactive” and the inhibition of growth at 10 µM (SR) was 10%. For the same molecule, the “growth inhibition (GI)” value (NCI-H460) was “inactive”, the “growth inhibition (GI)” value (MDA-MB-435) was “inactive” and the “growth inhibition (GI)” value (SK-MEL-28) was “inactive”. For the same molecule, the inhibition of growth at 10 µM (IGROV-1) was 6%, the “growth inhibition (GI)” value (CCRF-CEM) was “inactive” and the “growth inhibition (GI)” value (DU-145) was “inactive”. The “growth inhibition (GI)” value (MDA-MB-231) was “inactive”, the Ki (Carbonic anhydrase 9) was 548 nM and the “growth inhibition (GI)” value (UACC-257) was “inactive”. For the same molecule, the inhibition of growth at 10 µM (NCI-H522) was 15%, the “growth inhibition (GI)” value (SK-OV-3) was “inactive” and the “growth inhibition (GI)” value (SNB-19) was “inactive”. For the same molecule, the inhibition of growth at 10 µM (PC-3) was 4%, the inhibition of growth at 10 µM (A549) was 2% and the inhibition of growth at 10 µM (SK-MEL-5) was 3%. For the same molecule, the inhibition of growth at 10 µM (TK-10; TK-10, 48 h, read-out: GI) was 7%, the inhibition of growth at 10 µM (U-251) was 20% and the inhibition of growth at 10 µM (HCT-15) was 12%. It also gave an inhibition of growth at 10 µM (SNB-75; SNB-75, 48 h, read-out: GI) of 9%, an inhibition of growth at 10 µM (SF-295) of 1% and an inhibition of growth at 10 µM (Malme-3M; read-out: GI) of 15%. It also gave an inhibition of growth at 10 µM (HT-29) of 9%, an inhibition of growth at 10 µM (T47D) of 15% and an inhibition of growth at 10 µM (M14) of 1%. The “growth inhibition (GI)” value (SN12C) was “inactive”.
